In patent publication US20070224194A1, “Methods for Inhibiting Angiogenesis and/or Lymphangiogenesis” (LUDWIG INSTITUTE FOR CANCER RESEARCH, priority 2004, published 2007):
The star is where a group is joined. Decanoyl = CCCCCCCCCC(=O)*; CH2Cl = ClC*

How the values were obtained:
[1] = test system: VEGF-D propeptide processing; assay: VEGF-D processing by Balbc/3T3 cells that naturally produce VEGF-D; format: cell-based; settings: 100 μM
From the text: Finally, the effect of dec-RVKR-CMK on VEGF-D processing by Balbc/3T3 cells that naturally produce this growth factor (i.e., in cells that had not been transfected so as to express VEGF-D) was examined.

[2] = test system: BaF3 cells expressing the VEGFR-3/EpoR chimeric receptor; assay: BaF3 bioassay, VEGFR-3/EpoR chimeric receptor, [3H]thymidine incorporation; format: cell-based; settings: paper example in present tense
From the text: In order to test if a furin or broad-range PC inhibitor can block the biological effects of VEGF-D, mammalian cells are employed that proteolytically process VEGF-D, such as 293EBNA or Capan-1 pancreatic carcinoma cells. Derivatives of these cells harboring an expression construct for full-length VEGF-D are transfected with the shRNA construct for furin (as described here) or treated with a broad-range PC inhibitor such as decanoyl-Arg-Val-Lys-Arg-chloromethylketone (see, PCT WO 2005/112971 A1, the disclosure of which is incorporated herein by reference in its entirety). The inhibition of VEGF-D processing by these agents is confirmed by immunoprecipitation/Western blotting of the conditioned cell culture media using antibody that binds the VHD of VEGF-D. The conditioned cell culture media from cells treated with the inhibitors (and from cells in which these agents are omitted, i.e. “mock” treatments) are used for incubations with BaF3 pre-B cells expressing chimeric receptors consisting of the extracellular domains of VEGFR-2 or VEGFR-3 and the transmembrane and cytoplasmic domains of the erythropoietin receptor (EpoR) (Stacker et al., J. Biol. Chem., 274:34884-34892, 1999; Achen et al., Eur. J. Biochem., 267:2505-2515, 2000). […] The proliferation of the cells in response to the conditioned media containing VEGF-D is monitored by incorporation of [3H]thymidine into DNA. […]

Decanoyl-Arg-Val-Lys-Arg-chloromethylketone (Decanoyl-RVKR-CH2Cl) [Dec-RVKR-CMK]
VEGF-D propeptide processing [1]: almost completely blocked
proliferation of BaF3 VEGFR-3/EpoR cells induced by conditioned media of treated VEGF-D-expressing cells [2]: do not induce significant proliferation
